In the experiment the target is T1, FXR (Homo sapiens, UniProt Q96RI1).
T1 construct: host or cells: CHO cells
T1 sequence (Q96RI1 1-486): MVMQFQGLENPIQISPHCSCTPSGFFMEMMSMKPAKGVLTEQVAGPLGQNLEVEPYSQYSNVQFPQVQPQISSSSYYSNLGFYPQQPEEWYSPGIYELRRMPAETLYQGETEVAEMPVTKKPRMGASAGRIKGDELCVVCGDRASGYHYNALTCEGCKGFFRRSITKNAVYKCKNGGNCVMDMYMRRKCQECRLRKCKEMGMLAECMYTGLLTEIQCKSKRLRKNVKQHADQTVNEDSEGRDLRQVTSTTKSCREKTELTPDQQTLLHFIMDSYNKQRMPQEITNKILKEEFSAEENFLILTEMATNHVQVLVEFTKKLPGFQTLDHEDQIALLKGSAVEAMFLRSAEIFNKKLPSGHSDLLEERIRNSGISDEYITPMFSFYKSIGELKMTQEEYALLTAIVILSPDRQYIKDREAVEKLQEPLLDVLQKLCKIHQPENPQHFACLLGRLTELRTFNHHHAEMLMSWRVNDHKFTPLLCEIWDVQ
In words: CHO cell-based FXR luciferase reporter assay (Indigo Biosciences). Conditions: for EC50: 4 parameter logistic fit; for Emax: CHO. On the technique in general: A reporter such as luciferase makes a cellular process visible.

Regarding `COC(=O)/C=C/c1cccc(N(Cc2ccc(-c3ccc(N(C)C)cc3)cc2)C(=O)C2CCCCC2)c1` [Compound 7, Fexaramine, reference compound], under “% vs OCA 1 µM as 100%”, the “FXR Efficacy (%) (0.1 µM)” value came out at 12.8% and the “FXR Efficacy (%) (1 µM)” value is listed as 96.6%. In addition, the “FXR Efficacy (%) (10 µM)” value (10 µM, % vs OCA 1 µM as 100%) amounted to 130.9%.
For orientation: EC50 means the concentration needed to bring the measured effect to its halfway point. Low values mean greater potency, high ones weaker potency. One may read the Emax as the greatest response seen or fitted, relative to the assay's reference. Take `COc1cc(Cl)cc(N(CC23CCC(c4ccc(OC)c(C#N)c4)(CC2)CC3)C(=O)c2ccncc2C)c1` [Compound 20p]: the “FXR agonist activity (in words)” value is given as “strong dual agonist potencies”, the EC50 came to 190 nM and the maximal effect (Emax) is 28%. For the setting “% vs OCA 1 µM as 100%”, the “FXR Efficacy (%) (0.1 µM)” value stood at 57.1% and the “FXR Efficacy (%) (1 µM)” value worked out at 98.8%.
The matching figures for `COc1ccc(C23CCC(CN(C(=O)c4ccncc4C)c4cc(Cl)cc(Cl)c4)(CC2)CC3)cc1C#N` [Compound 20q]: “strong dual agonist potencies”, 79 nM, 33%, 85.7% and 79.6%.

The record behind these values is PMC8080777, “Discovery, optimization, and evaluation of non-bile acid FXR/TGR5 dual agonists” (Scientific Reports, 2021).
